In brackets after ≈: the same amount, converted by molar mass.

This assay can be described thus: Inhibitory activity in MTT assay against MK-I cell. The format is functional. As to conditions: Homo sapiens, read-out: ED50 (the source's name).
In the case of `C=C[C@H](O)C#CC#CC(/C=C\CCCCCCC)OC(C)=O` (some centres undefined), the EC50 stood at 3.2 µg/mL (≈ 10.6 µM).

On to `C=CC(O)C#CC#CC(O)/C=C\C(O)CCCCCC` (centres undefined), for which the EC50 turned out to be 2.2 µg/mL (≈ 7.96 µM).

Regarding `C=CC(O)C#CC#C[C@@H](O)/C=C\CCCCCCC` (single isomer, unassigned) [FALCARINDIOL], the EC50 came to 3.2 µg/mL (≈ 12.3 µM).

Take `C=C[C@H](O)C#CC#CC/C=C\CCCCCCC` [FALCARINOL]: the EC50 worked out at 0.3 µg/mL (≈ 1.23 µM).

Values taken from ChEMBL document CHEMBL1130980, “Novel antiproliferative falcarindiol furanocoumarin ethers from the root of Angelica japonica” (1998).
